This passage reports IC50 results from article PMC2858983 (Clinical cancer research : an official journal of the …, 2010).

Counter-ions that a name gives are not always drawn.

For this test, the target named is inducible nitric oxide synthase (iNOS) (Homo sapiens, UniProt P35228). In words: NO release. It counts as cell-based.
inducible nitric oxide synthase (iNOS), sequence (P35228 whole entry): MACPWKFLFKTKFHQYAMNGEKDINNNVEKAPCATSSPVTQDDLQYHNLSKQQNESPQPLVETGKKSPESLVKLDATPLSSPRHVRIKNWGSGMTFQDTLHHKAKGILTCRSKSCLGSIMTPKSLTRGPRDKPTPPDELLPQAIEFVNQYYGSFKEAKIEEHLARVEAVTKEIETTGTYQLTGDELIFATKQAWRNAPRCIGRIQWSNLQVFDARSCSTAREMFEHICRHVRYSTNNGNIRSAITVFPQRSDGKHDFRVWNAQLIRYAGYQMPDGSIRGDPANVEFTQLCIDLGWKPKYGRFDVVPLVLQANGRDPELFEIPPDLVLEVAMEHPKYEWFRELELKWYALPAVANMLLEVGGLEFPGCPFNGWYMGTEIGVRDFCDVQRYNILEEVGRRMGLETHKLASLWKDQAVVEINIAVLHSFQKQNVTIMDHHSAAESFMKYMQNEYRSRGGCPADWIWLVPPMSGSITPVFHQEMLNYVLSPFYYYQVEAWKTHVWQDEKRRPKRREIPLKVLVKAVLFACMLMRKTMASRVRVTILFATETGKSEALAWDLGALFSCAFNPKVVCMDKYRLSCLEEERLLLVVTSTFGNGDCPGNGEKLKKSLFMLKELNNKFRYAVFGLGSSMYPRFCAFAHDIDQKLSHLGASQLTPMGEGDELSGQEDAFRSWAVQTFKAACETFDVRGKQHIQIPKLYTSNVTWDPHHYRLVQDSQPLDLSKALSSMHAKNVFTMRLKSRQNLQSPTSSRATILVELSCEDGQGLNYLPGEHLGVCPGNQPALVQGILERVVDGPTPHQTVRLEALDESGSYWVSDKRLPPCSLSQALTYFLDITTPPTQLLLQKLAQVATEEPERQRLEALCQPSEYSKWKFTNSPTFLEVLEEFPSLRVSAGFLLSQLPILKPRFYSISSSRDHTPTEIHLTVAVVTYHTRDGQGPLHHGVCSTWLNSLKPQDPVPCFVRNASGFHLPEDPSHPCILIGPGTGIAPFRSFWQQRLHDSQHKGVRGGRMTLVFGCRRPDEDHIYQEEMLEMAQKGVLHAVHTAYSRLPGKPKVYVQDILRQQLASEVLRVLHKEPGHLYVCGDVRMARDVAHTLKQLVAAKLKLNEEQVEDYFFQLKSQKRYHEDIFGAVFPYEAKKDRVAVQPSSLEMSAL

`CC(=N)NCCCC[C@H](N)C(=O)O` [L-nil, N6-(1-Iminoethyl)-L-lysine-dihydrochloride]: the IC50 worked out at 595 µM.
